From US20230348376A1 (TEIJIN PHARMA LIMITED, priority 2020, published 2023)

Experiments:
[1] = test system: rat oligodendrocyte progenitor cells; assay: Promotive activity of rat oligodendrocyte progenitor cell differentiation-2 (immunostaining of MBP); format: cell-based; conditions: vitamin D derivative 2 μM, T3 30 nM, 4 days
Summary of the method: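 Rat OPCs prepared by shaking in separation medium about 22 h at 37 °C, 200 rpm, and collecting the supernatant.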

[2] = Evaluation of brain penetration in mice (blood and brain concentration at brain Cmax); format: in vivo, mouse; conditions: 1 mg/kg single oral dose, C57BL/6J mice; for Concentration in blood (mean ± SD) at brain Cmax / Concentration in brain (mean ± SD) at brain Cmax: n=3; for Kp: male, C57BL/6J, mouse, brain/plasma, po, 1 mg/kg, read-out: Concentration in brain/in blood ratio at brain Cmax
Description: The administration solution was administered orally to C57BL/6J mice (8 weeks old, male, n=3) at a single dose (1 mg/kg). Mice were euthanized at 6 points of 0.25, 0.5, 1, 2, 4, and 8 hours after administration, and plasma and brain sampling were performed. After preparing a homogenate from the collected brain using Tissue Lyser II (QIAGEN #85300), acetonitrile was added to the homogenate and the homogenate was centrifuged (12000 rpm, 5 minutes) to extract the administered test compound contained in the brain. Similarly, the plasma was subjected to addition of acetonitrile and centrifugal separation to extract the administered test compound contained in the plasma. Each extracted sample was subjected to measurement of the concentration of administered test compound using LC/MS/MS (SHIMADZU UFLC/MS/MS (8050)).
Test 2 [0.2 mg/kg Administration Study] […] The administration solution was administered orally to C57BL/6J mice (8 weeks old, male, n=3) at a single dose (0.2 mg/kg). Mice were euthanized at 6 points of 0.25, 0.5, 1, 2, 4, and 8 hours after administration, and plasma and brain sampling were performed. After preparing a homogenate from the collected brain using Tissue Lyser II (QIAGEN #85300), acetonitrile was added to the homogenate and the homogenate was centrifuged (12000 rpm, 5 minutes) to extract the administered compound contained in the brain. Similarly, the plasma was subjected to addition of acetonitrile and centrifugal separation to extract the administered test compound contained in the plasma. Each extracted sample was subjected to measurement of the concentration of administered test compound using LC/MS/MS (SHIMADZU UFLC/MS/MS (8050)).

human VDR = molecular target: T1, human VDR (Homo sapiens, UniProt P11473); assay: Evaluation of VDR transcription activity in human osteoblasts (HOS cells), luciferase reporter; conditions: Activity (EC50, VDR transcription activity), HOS cells transfected with human VDR, human RXRα and DR3 luciferase reporter; 21 hours
T1 sequence (P11473 1-427): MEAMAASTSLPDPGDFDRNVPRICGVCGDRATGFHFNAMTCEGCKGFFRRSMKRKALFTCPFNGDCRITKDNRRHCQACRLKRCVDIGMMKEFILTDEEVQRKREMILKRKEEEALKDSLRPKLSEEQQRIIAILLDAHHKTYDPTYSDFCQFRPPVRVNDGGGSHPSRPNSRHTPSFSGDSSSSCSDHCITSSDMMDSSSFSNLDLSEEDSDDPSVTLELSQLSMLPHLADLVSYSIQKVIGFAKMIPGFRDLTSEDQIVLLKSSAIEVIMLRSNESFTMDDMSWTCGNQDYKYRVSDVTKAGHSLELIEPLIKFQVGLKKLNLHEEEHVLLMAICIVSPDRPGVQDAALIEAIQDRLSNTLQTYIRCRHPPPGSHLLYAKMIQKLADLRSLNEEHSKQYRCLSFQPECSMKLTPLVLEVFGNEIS
T1 sequence (P19793 1-462 partner): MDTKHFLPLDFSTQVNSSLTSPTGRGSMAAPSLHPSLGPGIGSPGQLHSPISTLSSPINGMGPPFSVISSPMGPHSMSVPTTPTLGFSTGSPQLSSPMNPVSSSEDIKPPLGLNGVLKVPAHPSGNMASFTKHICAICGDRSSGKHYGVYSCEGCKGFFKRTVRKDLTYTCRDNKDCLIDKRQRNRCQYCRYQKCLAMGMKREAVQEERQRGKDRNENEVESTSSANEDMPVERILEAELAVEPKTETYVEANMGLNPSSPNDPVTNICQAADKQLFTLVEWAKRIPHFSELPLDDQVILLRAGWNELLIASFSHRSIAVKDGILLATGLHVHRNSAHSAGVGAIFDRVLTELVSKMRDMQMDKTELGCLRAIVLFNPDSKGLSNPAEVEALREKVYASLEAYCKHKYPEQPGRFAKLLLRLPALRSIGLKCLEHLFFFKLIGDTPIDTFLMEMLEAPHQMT

SMILES | Mean (number of MBP-positive cells/number of Hoechst33342-positive cells) ([1]; Test 2) | Concentration in blood (mean ± SD) at brain Cmax [2] | Concentration in brain (mean ± SD) at brain Cmax [2] | Kp [2] | EC50 (human VDR) | Concentration in brain/in blood ratio at brain Cmax [2] | Mean (number of MBP-positive cells/number of Hoechst33342-positive cells) ([1]; Test 1) | Mean (number of MBP-positive cells/number of Hoechst33342-positive cells) ([1]; Test 9) | Mean (number of MBP-positive cells/number of Hoechst33342-positive cells) ([1]; Test 4)
C=C1[C@H](O)CC(=C/C=C2\CCC[C@]3(C)[C@@H]([C@H](C)CN4CCCC(O)(C(F)F)C4)CC[C@@H]23)C[C@H]1O (single isomer, unassigned) [Compound C036a] | 0.53 | 849 ± 40 nM | 566 ± 89 pmol/g | 0.67 | < 1 nM | – | – | – | –
C=C1[C@H](O)CC(=C/C=C2\CCC[C@]3(C)[C@@H]([C@H](C)CN4CCCC(O)(C(F)F)C4)CC[C@@H]23)C[C@H]1O (single isomer, unassigned) [Compound C036b] | 0.22 | 853 ± 89 nM | 495 ± 16 pmol/g | – | 10 to 100 nM | 0.58 | – | – | –
C=C1/C(=C\C=C2/CCC[C@]3(C)[C@@H]([C@H](C)CN4CC[C@H](C(F)F)C4)CC[C@@H]23)C[C@@H](O)C[C@@H]1O [Compound B020, (1R,3S,Z)-5-(2-((1R,3aS,7aR,E)-1-((S)-1-((S)-3-(difluoromethyl)pyrrolidin-1-yl)propan-2-yl)-7a-methyloctahydro-4H-inden-4-ylidene)ethylidene)-4-methylenecyclohexane-1,3-diol] | – | 676 ± 175 nM | 410 ± 23 pmol/g | 0.61 | 10 to 100 nM | – | 0.38 | – | –
C[C@H](CN1CC[C@H](C(F)F)C1)[C@H]1CC[C@H]2/C(=C/C=C3C[C@@H](O)C[C@H](O)C3)CCC[C@]12C [Compound B022, (1R,3R)-5-(2-((1R,3aS,7aR,E)-1-((S)-1-((S)-3-(difluoromethyl)pyrrolidin-1-yl)propan-2-yl)-7a-methyloctahydro-4H-inden-4-ylidene)ethylidene)cyclohexane-1,3-diol] | – | 316 ± 84 nM | 529 ± 53 pmol/g | 1.67 | 10 to 100 nM | – | 0.47 | – | –
C=C1[C@H](O)CC(=C/C=C2\CCC[C@]3(C)[C@@H]([C@H](C)CN4CC[C@H](C(F)F)C4)CC[C@@H]23)C[C@H]1O [Compound B023, (1R,3R)-5-(2-((1R,3aS,7aR,E)-1-((S)-1-((S)-3-(difluoromethyl)pyrrolidin-1-yl)propan-2-yl)-7a-methyloctahydro-4H-inden-4-ylidene)ethylidene)-2-methylenecyclohexane-1,3-diol] | – | 248 ± 28 nM | 852 ± 48 pmol/g | 3.44 | 1 to 10 nM | – | 0.50 | – | –
C=C1/C(=C\C=C2/CCC[C@]3(C)[C@@H]([C@H](C)CN4CC[C@H](C(C)(F)F)C4)CC[C@@H]23)C[C@@H](O)[C@H](C)[C@@H]1O [Compound B029, (1R,2S,3S,Z)-5-(2-((1R,3aS,7aR,E)-1-((S)-1-((S)-3-(1,1-difluoroethyl)pyrrolidin-1-yl)propan-2-yl)-7a-methyloctahydro-4H-inden-4-ylidene)ethylidene)-2-methyl-4-methylenecyclohexane-1,3-diol] | – | 161 ± 40 nM | 156 ± 15 pmol/g | 0.97 | 1 to 10 nM | – | 0.31 | – | –
C=C1/C(=C\C=C2/CCC[C@]3(C)[C@@H]([C@H](C)CN4CC[C@H](CC(F)F)C4)CC[C@@H]23)C[C@@H](O)C[C@@H]1O [Compound B036] | – | 61 ± 11 nM | 68 ± 36 pmol/g | 1.12 | 10 to 100 nM | – | 0.59 | – | –
C[C@H](CN1CC[C@@H](OCC(F)F)C1)[C@H]1CC[C@H]2/C(=C/C=C3C[C@@H](O)C[C@H](O)C3)CCC[C@]12C [Compound B058, (1R,3R)-5-(2-((1R,3aS,7aR,E)-1-((S)-1-((R)-3-(2,2-difluoroethoxy)pyrrolidin-1-yl)propan-2-yl)-7a-methyloctahydro-4H-inden-4-ylidene)ethylidene)cyclohexane-1,3-diol] | 0.49 | 78 ± 15 nM | 67 ± 9 pmol/g | 0.86 | – | – | – | – | –
C=C1/C(=C\C=C2/CCC[C@]3(C)[C@@H]([C@H](C)CN4CCCC[C@H]4C)CC[C@@H]23)C[C@@H](O)C[C@H]1O [Compound I002, (1R,3R,Z)-5-(2-((1R,3aS,7aR,E)-7a-methyl-1-((S)-1-((R)-2-methylpiperidin-1-yl)propan-2-yl)octahydro-4H-inden-4-ylidene)ethylidene)-4-methylenecyclohexane-1,3-diol] | – | – | – | – | – | – | – | 0.31 | –
C=C1/C(=C\C=C2/CCC[C@]3(C)[C@@H]([C@H](C)CN4CCCCC4(C)C)CC[C@@H]23)C[C@@H](O)C[C@H]1O [Compound I003, (1R,3R,Z)-5-(2-((1R,3aS,7aR,E)-1-((S)-1-(2,2-dimethylpiperidin-1-yl)propan-2-yl)-7a-methyloctahydro-4H-inden-4-ylidene)ethylidene)-4-methylenecyclohexane-1,3-diol] | – | – | – | – | – | – | – | 0.33 | –
C=C1/C(=C\C=C2/CCC[C@]3(C)[C@@H]([C@H](C)CN4CCOC[C@@H]4C)CC[C@@H]23)C[C@@H](O)C[C@H]1O [Compound I004, (1R,3R,Z)-5-(2-((1R,3aS,7aR,E)-7a-methyl-1-((S)-1-((S)-3-methylmorpholino)propan-2-yl)octahydro-4H-inden-4-ylidene)ethylidene)-4-methylenecyclohexane-1,3-diol] | – | – | – | – | – | – | – | – | 0.44
C=C1/C(=C\C=C2/CCC[C@]3(C)[C@@H]([C@H](C)CN4CCOC[C@H]4C)CC[C@@H]23)C[C@@H](O)C[C@H]1O [Compound I005, (1R,3R,Z)-5-(2-((1R,3aS,7aR,E)-7a-methyl-1-((S)-1-((R)-3-methylmorpholino)propan-2-yl)octahydro-4H-inden-4-ylidene)ethylidene)-4-methylenecyclohexane-1,3-diol] | – | – | – | – | – | – | – | – | 0.43
C=C1/C(=C\C=C2/CCC[C@]3(C)[C@@H]([C@H](C)CN4CCOCC4(C)C)CC[C@@H]23)C[C@@H](O)C[C@H]1O [Compound I006, (1R,3R,Z)-5-(2-((1R,3aS,7aR,E)-1-((S)-1-(3,3-dimethylmorpholino)propan-2-yl)-7a-methyloctahydro-4H-inden-4-ylidene)ethylidene)-4-methylenecyclohexane-1,3-diol] | – | – | – | – | – | – | – | – | 0.51
